Data on 30 molecules can be found in article PMC12302229, “Synergy of triazolyl substituents at C1 and C3 of galactose for high-affinity and selective galectin-4C inhibition” (RSC Chemical Biology, 2025).

For assay [1], the target named is T1, galectin-1 (Homo sapiens, UniProt P09382).
T1 construct: made in house
The note with it: cited from earlier work.

The target in assay [2] is T2, galectin-4C (Homo sapiens, UniProt P56470).
T2 construct: made in house; host or cells: E. coli BL-21 (DE3)
T2 sequence (P56470 185-323): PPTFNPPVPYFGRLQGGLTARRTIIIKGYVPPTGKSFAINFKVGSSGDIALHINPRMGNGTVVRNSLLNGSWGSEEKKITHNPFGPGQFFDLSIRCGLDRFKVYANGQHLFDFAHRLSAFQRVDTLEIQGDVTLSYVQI
As to conditions: Chart 1, known C1-galactosyl inhibitors; read-out: affinity, Galectin-4C; cited from earlier work.

The target of assay [3] is T3, galectin-3 (Homo sapiens, UniProt P17931).
T3 construct: made in house
The note with it: cited from earlier work.

The target in assay [4] is T3, galectin-3. The assay can be described thus: competitive fluorescence polarization assay, galectin-3. As to conditions: Kd and SEM from 3–6 single point measurements, > values estimated, no apparent binding at highest concentration, read-out: Dissociation constants, Galectin-3. On the procedure:
(§1) Affinities of 1c–1z for galectin-1, -3, -4C, -4N, -7, -8C, -8N, -9C, and -9N were measured using an established fluorescence polarization assay[57] with reported probes and conditions.[19] […]
(§2) Fluorescence polarization experiments
(§3) Human galectin-11 and galectin-32 were expressed and purified as earlier described. Fluorescence polarization experiments were performed on a PheraStarFS plate reader with software PHERAstar Mars version 2.10 R3 (BMG, Offenburg, Germany). Specific experimental conditions were a galectin-1 concentration of 0.5 µM together with the fluorescent probe (3,3’-dideoxy-3-[4-(fluorescein-5-yl-carbonylaminomethyl)-1H-1,2,3-triazol-1-yl]-3’-(3,5-di-methoxybenzamido)-1,1’-sulfanediyl-di-β-D-galactopyranoside 1 concentration of 20 nM and a galectin-3 concentration of 0.2 µM together with the fluorescent probe (3,3’-dideoxy-3-[4-(fluorescein-5-yl-carbonylaminomethyl)-1H-1,2,3- […]
(§4) triazol-1-yl]-3’-(3,5-di-methoxybenzamido)-1,1’-sulfanediyl-di-β-D-galactopyranoside) concentration of 20 nM, respectively. Inhibitors were dissolved in dimethylsulfoxide (analytical grade) to a concentration of 20 mM, diluted with PBS to 3–6 different concentrations, and tested in duplicate twice for galectin affinity using a competitive fluorescence polarization assay as earlier described.3 The highest inhibitor concentrations tested were 1 mM due to solubility limitations at higher concentration. Dissociation constants average and SEM were calculated from two to eight single point measurements showing between 20–80% inhibition. […]

Assay [5] has as its target T2, galectin-4C. The assay can be described thus: competitive fluorescence polarization assay, galectin-4C. The class given is binding. The note with it: for Kd: fluorescence polarization, x/y cells = only two data points revealed inhibition, both shown, > values estimated, no apparent binding at highest concentration, read-out: Dissociation constants, Galectin-4C. On the procedure:
Affinities of 1c–1z for galectin-1, -3, -4C, -4N, -7, -8C, -8N, -9C, and -9N were measured using an established fluorescence polarization assay[57] with reported probes and conditions.[19]
Recombinant human galectin-4 C-terminal carbohydrate recognition domain was expressed and purified as previously reported.[57,70] Briefly, BL-21 (DE3) E. coli cells containing galectin-4C (amino acid sequence 185–323) was expressed, lysed by sonication and purified by affinity chromatography on a lactosyl-Sepharose column. Galectin-4C protein was eluted using 50 mM β-lactose in PBS, pH 7.4. Galectin-4C was then further gel purified using a Superdex 200/60 column (GE Healthcare) previously equilibrated in PBS, pH 7.4. The peak fractions collected containing galectin-4C were pooled and concentrated to 6.5 mg mL^−1 using an AmiconUltra 3K molecular weight cut-off centrifugal concentrator (Millipore, Billerica, MA, USA) and used directly in crystallisation studies. […]
as §4

The target in assay [6] is T1, galectin-1. The assay can be described thus: competitive fluorescence polarization assay, galectin-1. The class given is binding. As to conditions: for Kd: fluorescence polarization, Kd and SEM from 3–6 single point measurements, read-out: Dissociation constants, Galectin-1. Here is the method:
as §1, §2, §3, §4
(In general: In fluorescence polarisation assays a small probe gives low polarisation when free and higher when bound to something large.)

[7] abbreviates: Table 1 reference compounds, read-out: Dissociation constants, Galectin-1.
Setting [8] is: Table 1 reference compounds, read-out: Dissociation constants, Galectin-3.
The mark [9] stands for this setting: Chart 1, known C1-galactosyl inhibitors, read-out: affinity, Galectin-1.
[10] abbreviates: Chart 1, known C1-galactosyl inhibitors, read-out: affinity, Galectin-3.

Structures are written as SMILES. Values joined by “and” are separate entries in the source; they are usually repeats but may differ in a detail not shown here. Equal values may be shown once. Read-outs that look alike come from different tables or passages of the source. Where only a bound is given, the exact number is not on record here.

T3 sequence (P17931 whole entry): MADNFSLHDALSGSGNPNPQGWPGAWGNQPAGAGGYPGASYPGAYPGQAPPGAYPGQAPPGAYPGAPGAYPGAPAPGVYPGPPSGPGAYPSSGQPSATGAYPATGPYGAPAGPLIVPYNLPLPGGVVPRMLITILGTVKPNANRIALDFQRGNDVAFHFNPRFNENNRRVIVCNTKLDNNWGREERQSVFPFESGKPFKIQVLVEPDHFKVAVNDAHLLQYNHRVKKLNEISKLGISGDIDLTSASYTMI
T1 sequence (P09382 whole entry): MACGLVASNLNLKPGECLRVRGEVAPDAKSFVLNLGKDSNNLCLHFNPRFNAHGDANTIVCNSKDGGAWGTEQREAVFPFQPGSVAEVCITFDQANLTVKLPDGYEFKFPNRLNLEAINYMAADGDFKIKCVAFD

For the molecule `OC[C@H]1O[C@@H](c2cn(-c3ccccc3F)nn2)[C@H](O)[C@@H](O)[C@H]1O` [Compound 1a], the figures for the Kd at galectin-1 [1] (setting [7]), on galectin-4C [2] and on galectin-3 [3] (setting [8]) were 170 µM, 780 µM and 880 µM, respectively.
Consider `OC[C@H]1O[C@@H](c2cn(-c3ccc(Cl)cc3)nn2)[C@H](O)[C@@H](O)[C@H]1O` [Compound 1b], for which the Kd was 340 µM on galectin-1 [1] (setting [7]), 760 µM at galectin-4C [2] and 1700 µM on galectin-3 [3] (setting [8]).
In the case of `OC[C@H]1O[C@@H](c2cn(-c3ccc(Br)cc3)nn2)[C@H](O)[C@@H](O)[C@H]1O` [Compound 1c, 4-(1-Deoxy-β-D-galactopyranosyl)-1-(4-bromophenyl)-1H-1,2,3-triazole], the Kd on galectin-3 [4] was 1.4 ± 0.34 mM; at galectin-4C [5], 1.4 mM and 1.5 mM; at galectin-1 [6], 0.14 ± 0.025 mM. Besides, at galectin-1 [6] (ratio of Kd), the “selectivity for galectin-1 over galectin-3” value was “tenfold”.
For the molecule `OC[C@H]1O[C@@H](c2cn(-c3cccc(Br)c3)nn2)[C@H](O)[C@@H](O)[C@H]1O` [Compound 1d, 4-(1-Deoxy-β-D-galactopyranosyl)-1-(3-bromophenyl)-1H-1,2,3-triazole], the Kd was 1.6 ± 0.03 mM on galectin-3 [4], over 2 mM on galectin-4C [5] and 1.4 ± 0.095 mM on galectin-1 [6].
As to `OC[C@H]1O[C@@H](c2cn(-c3ccc(I)cc3)nn2)[C@H](O)[C@@H](O)[C@H]1O` [Compound 1e], the results for the Kd on galectin-3 [4] and at galectin-1 [6] were over 1 mM and 0.46 ± 0.05 mM, respectively.
In the same order, the values of `OC[C@H]1O[C@@H](c2cn(-c3cccc(I)c3)nn2)[C@H](O)[C@@H](O)[C@H]1O` [Compound 1f] are over 1 mM and 1.3 ± 0.22 mM.
Take `OC[C@H]1O[C@@H](c2cn(-c3ccc(C(F)(F)F)cc3)nn2)[C@H](O)[C@@H](O)[C@H]1O` [Compound 1g]: the Kd at galectin-3 [4] was 1.2 ± 0.031 mM; at galectin-4C [5], 2.3 mM and 2.6 mM; on galectin-1 [6], 1.3 ± 0.32 mM.
Consider `OC[C@H]1O[C@@H](c2cn(-c3cccc(C(F)(F)F)c3)nn2)[C@H](O)[C@@H](O)[C@H]1O` [Compound 1h], for which the Kd is 1.3 ± 0.069 mM at galectin-3 [4]; 1.5 mM and 2.2 mM on galectin-4C [5]; 1.5 ± 0.062 mM on galectin-1 [6].
`O=[N+]([O-])c1ccc(-n2cc([C@@H]3O[C@H](CO)[C@H](O)[C@H](O)[C@H]3O)nn2)cc1` [Compound 1i]: the Kd on galectin-3 [4] was 1.5 ± 0.067 mM; on galectin-4C [5] it was 0.91 ± 0.046 mM; on galectin-1 [6], 0.4 ± 0.005 mM.
In the same order, the values of `O=[N+]([O-])c1cccc(-n2cc([C@@H]3O[C@H](CO)[C@H](O)[C@H](O)[C@H]3O)nn2)c1` [Compound 1j] are 1 ± 0.023 mM, over 2 mM and 1.8 ± 0.064 mM.
For `OC[C@H]1O[C@@H](c2cn(-c3c(F)cccc3F)nn2)[C@H](O)[C@@H](O)[C@H]1O` [Compound 1k], in that order: 1.2 ± 0.09 mM, over 2 mM and 1.3 ± 0.19 mM.
For `OC[C@H]1O[C@@H](c2cn(-c3ccc(Cl)cc3F)nn2)[C@H](O)[C@@H](O)[C@H]1O` [Compound 1l], the Kd is 1.2 ± 0.11 mM on galectin-3 [4], over 2 mM on galectin-4C [5] and 0.3 ± 0.02 mM at galectin-1 [6].
In the same order, the values of `OC[C@H]1O[C@@H](c2cn(-c3cc(Cl)ccc3F)nn2)[C@H](O)[C@@H](O)[C@H]1O` [Compound 1m] are 0.87 ± 0.14 mM, 1.3 ± 0.26 mM and 0.58 ± 0.012 mM.
For `OC[C@H]1O[C@@H](c2cn(-c3cccc(Cl)c3F)nn2)[C@H](O)[C@@H](O)[C@H]1O` [Compound 1n], in that order: over 1 mM, over 2 mM and 1.1 ± 0.048 mM.
For `OC[C@H]1O[C@@H](c2cn(-c3ccc(Br)cc3F)nn2)[C@H](O)[C@@H](O)[C@H]1O` [Compound 1o], in that order: 0.77 ± 0.089 mM, over 2 mM and 0.31 ± 0.029 mM.
Take `OC[C@H]1O[C@@H](c2cn(-c3ccc(Cl)c(Cl)c3)nn2)[C@H](O)[C@@H](O)[C@H]1O` [Compound 1p]: the Kd at galectin-3 [4] is 0.66 ± 0.053 mM; at galectin-4C [5], 2.3 mM and 2.5 mM; on galectin-1 [6], 1.3 ± 0.2 mM.
In the case of `Cc1ccc(-n2cc([C@@H]3O[C@H](CO)[C@H](O)[C@H](O)[C@H]3O)nn2)cc1Cl` [Compound 1q], the figures for the Kd on galectin-3 [4], at galectin-4C [5] and at galectin-1 [6] were 1.4 ± 0.038 mM, over 2 mM and 1.2 ± 0.24 mM, respectively.
For `OC[C@H]1O[C@@H](c2cn(-c3ccc(Cl)cn3)nn2)[C@H](O)[C@@H](O)[C@H]1O` [Compound 1r], in that order: 0.49 ± 0.006 mM, over 2 mM and 0.65 ± 0.003 mM.
In the same order, the values of `OC[C@H]1O[C@@H](c2cn(-c3nccs3)nn2)[C@H](O)[C@@H](O)[C@H]1O` [Compound 1s] are 0.91 ± 0.092 mM, over 2 mM and 0.98 ± 0.007 mM.
For `OC[C@H]1O[C@@H](c2cn(-c3ccc(-c4ccccc4)cc3)nn2)[C@H](O)[C@@H](O)[C@H]1O` [Compound 1t], in that order: 2 ± 0.27 mM, 0.88 ± 0.082 mM and 0.97 ± 0.025 mM.
Consider `OC[C@H]1O[C@@H](c2cn(-c3ccc4c(c3)CCC4)nn2)[C@H](O)[C@@H](O)[C@H]1O` [Compound 1u], for which the figures for the Kd on galectin-3 [4], at galectin-4C [5] and at galectin-1 [6] were 1.4 ± 0.16 mM, 2.1 ± 0.49 mM and 2.1 ± 0.073 mM, respectively.
`CS(=O)(=O)c1ccc(-n2cc([C@@H]3O[C@H](CO)[C@H](O)[C@H](O)[C@H]3O)nn2)cc1` [Compound 1v]: the Kd on galectin-3 [4] was 0.69 ± 0.07 mM; at galectin-4C [5], 2.9 mM and 3.5 mM; on galectin-1 [6], 0.78 ± 0.043 mM.
`CS(=O)(=O)c1cccc(-n2cc([C@@H]3O[C@H](CO)[C@H](O)[C@H](O)[C@H]3O)nn2)c1` [Compound 1w]: the Kd at galectin-3 [4] is 1.4 ± 0.07 mM; at galectin-4C [5] it was over 2 mM; at galectin-1 [6], 1.4 ± 0.085 mM.
As for `CC(=O)c1ccc(-n2cc([C@@H]3O[C@H](CO)[C@H](O)[C@H](O)[C@H]3O)nn2)cc1` [Compound 1x], the Kd on galectin-3 [4] is 1.2 ± 0.083 mM; on galectin-4C [5], 1.9 ± 0.55 mM; on galectin-1 [6], 0.97 ± 0.065 mM.
Consider `CC(=O)c1cccc(-n2cc([C@@H]3O[C@H](CO)[C@H](O)[C@H](O)[C@H]3O)nn2)c1` [Compound 1y], for which the Kd on galectin-3 [4] is 1 ± 0.2 mM; at galectin-4C [5], 2 mM and 2.7 mM; on galectin-1 [6] it was 1.3 ± 0.26 mM.
On to `OC[C@H]1O[C@@H](c2cn(-c3ccccn3)nn2)[C@H](O)[C@@H](O)[C@H]1O` [Compound 1z], for which the Kd on galectin-3 [4] was 0.88 ± 0.1 mM; at galectin-4C [5], 2.6 mM and 3.1 mM; on galectin-1 [6], 0.15 ± 0.017 mM.
As for `OC[C@H]1O[C@@H](c2cnc(-c3cccc4ccccc34)o2)[C@H](O)[C@@H](O)[C@H]1O` [Compound 2], the Kd is 490 µM on galectin-1 [1] (setting [9]); 550 µM on galectin-4C [2]; 90 µM at galectin-3 [3] (as printed in the running text, read-out: galectin-3 affinity).
For the molecule `OC[C@H]1O[C@@H](Cn2cc(-c3ccc(F)cc3)nn2)[C@H](O)[C@@H](O)[C@H]1O` [Compound 3], the Kd at galectin-1 [1] (setting [9]) was 170 µM; on galectin-4C [2], 1200 µM; at galectin-3 [3] (setting [10]) it was 710 µM.
As to `OC[C@H]1O[C@@H](Cn2cc(-c3ccc(C(F)(F)F)cc3)nn2)[C@H](O)[C@@H](O)[C@H]1O` [Compound 4], the figures for the Kd at galectin-1 [1] (setting [9]), on galectin-4C [2] and at galectin-3 [3] (setting [10]) were 240 µM, over 900 µM and 830 µM, respectively.
For the molecule `OC[C@H]1O[C@@H](c2cnc(-c3cccc4ccccc34)o2)[C@H](O)[C@@H](n2cc(-c3ccccc3)nn2)[C@H]1O` [Compound 18], the Kd at galectin-4C [5] was 0.0023 ± 0.0004 mM. Besides, at galectin-4C [5] (ratio of Kd), the “selectivity for galectin-4C over galectin-3” value is listed as 4 fold.
